The values below come from patent publication US20110076236A1, “COMPOSITIONS AND METHODS OF TREATMENT USING MODULATORS OF MOTONEURON DISEASES” (Kinemed, Inc., priority 2008, published 2011).

Data set [1] deals with MT-mediated fast axonal transport. Kind of data set: MT-mediated fast axonal transport of 2H-label neuregulin-1 and chromogranin-B synaptic vesicle cargo (CSF secretion, spinal cord retention). Conditions: 13 weeks SOD1 G93A mice; 3 weeks treatment, 100 mg/kg/d and 200 mg/kg/d. The data set is classed as in vivo, mouse. The method, then:
After 3 weeks of treatment with MTMA noscapine (100 mg/kg/d and 200 mg/kg/d) an intraperitoneal pulse dose of 30-35 ml/kg ^2H2O CSF was given and CSF as well as spinal cord lumbar region were collected from 13 weeks wild type (WT) and symptomatic SOD1 G93A mice at 24, 48 and 72 h, respectively. CSF secretion rates and neuronal kinetic of retention of ^2H-label neuregulin-1 [NeuR-1] or ^2H-label chromogranin-B [Chr-B] containing synaptic vesicles were measured as described above (FIGS. 23 and 24). […] Neuroprotective actions of agents are evaluated by comparing their ability to normalize the time course, extent or pattern of appearance of labeled secreted synaptic vesicle “cargo” molecules in the body fluid or tissue sampled
As detailed in FIG. 25 (A) transgenic SOD G93A mice (representing an animal model of ALS), are given heavy water (^2H2O), to label secreted molecules in motor neurons (n=30 mice total). […] Protein-derived amino acids were derivatized to pentafluorobenzyl derivatives, and ^2H incorporation in alanine released from neuregulin-1 were measured by GC/MS. […] Protein-derived amino acids are derivatized to pentafluorobenzyl derivatives, and ^2H incorporation from ^2H2O into derivatized-alanine is measured by GC/MS, as described in detail elsewhere [Fanara, P. et al. In vivo measurement of microtubule dynamics using stable isotope labeling with heavy water. […]

A further data set has as its system SOD1-G93A TGN mice. Description: Clinical assessment (gait/stride length, onset, end stage) of SOD1-G93A TGN mice treated from presymptomatic stage. Type of data set: in vivo, mouse. The conditions noted are these: treatment from 7 weeks; for Mortality: age at death; for Onset of Motor Deficits: age at onset. The method, then:
FIG. 6. Noscapine-MK801 combination delays onset of disease and death in SOD1-G93A TGN mice. The one and two-drug treatments were started at an early (i.e., presymptomatic) stage of disease (7 weeks). […] Mice received noscapine intraperitoneally and MK-801 in drinking water.
Female SOD-1 G93A TGN mice were obtained from Jackson laboratory (strain #2726). The controls were matched litter mates. Treatment groups were three per group. Noscapine was injected intraperitoneal in the thigh 3 times/week (0.2 mg/kg i.p.) and MK801 was administered continuously in drinking water (12 mg/kg/d). Gait analysis was done by the method of Wooley et al., Muscle Nerve 2005 32(1):43-50 and Carter et al. J. Neurosci., 19(8):3248-3257, hereby incorporated by reference in their entirety.
For clinical assessment endpoints scoring was selected as follows:
GROUP CLASSIFICATION: Presymptomatic
Clinical signs: Full mobility and no observable difference in behavior from age-matched controls (Gait or stride length analysis).
GROUP CLASSIFICATION: Onset
Clinical signs: Abnormal Gait or stride length analysis and hindlimb weakness: >40% reduction in stride length vs. age-matched littermates.
GROUP CLASSIFICATION: End Stage (euthanization)
Clinical signs: noticeable and complete hind limb paralysis (which in this strain occurs more on one limb than the other) and inability to right themselves in 5 sec time window. This stage starts usually as the mice are failing the gait analysis test and enter the End stage. Therefore, Transgenic SOD1-G93A TGN mice are euthanized at the onset of noticeable and complete hindlimb paralysis and inability to right themselves in 5 sec time window.

The conditions of data set [2]: in vivo; cited from earlier work.

Entries after “also recorded” stand apart in the source; their conditions may differ.

`COc1ccc2c(c1OC)C(=O)O[C@@H]2[C@H]1c2c(cc3c(c2OC)OCO3)CCN1C` [Noscapine, noscapine]: the “fast axonal transport of 2H-label neuregulin-1 and chromogranin-B containing synaptic vesicles” value in data set [1] is “normalized MT-mediated fast axonal transport rates; also recorded: improves this delayed fast axonal transport”. Besides, in the data set with SOD1-G93A TGN mice, the Mortality was in the range of 112 to 119 days and the “Onset of Motor Deficits” value fell in the range of 98 to 105 days. In data set [2], the “blood brain barrier penetration” value is reported as “penetrates the blood brain barrier”; the “half-life in CNS tissue (brain and spinal cord) and PNS” value is listed as “long half-life”.

As for `C[C@]12N[C@H](Cc3ccccc31)c1ccccc12` [MK-801, Dizocilipine], in the data set on SOD1-G93A TGN mice, the Mortality lay within 112 to 119 days and the “Onset of Motor Deficits” value fell in the range of 105 to 112 days.
